According to patent publication US8415357B2 (Canbas Co., Ltd., priority 2007, dated 2013):
Entries after “also recorded” stand apart in the source; their conditions may differ.

Columns and labels:
Jurkat cells = experiment: Adaptation to G2 cell cycle arrest (G1 increment) in X-ray pre-arrested Jurkat cells, flow cytometry; format: cell-based, human; conditions: for IC50: Homo sapiens, Jurkat, 24 h, concentration causing half-maximal increase of % cells in G1 phase (G1 increment), Jurkat pre-arrested by 10 Gy X-ray, 24 hours with compound
Summary of the method: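 Jurkat cells were G2-arrested by 10 Gy X-ray irradiation and held 24 h in 10% FCS/RPMI1640 at 37 °C. They were then exposed to compounds for a further 24 h. Propidium iodide staining and flow cytometry gave the %G1 cells, and IC50 (μM) is the concentration giving a half-maximal G1 increment.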

ARH-77 cells = experiment: Survival of SCID mice with xenografts of ARH-77 cells; conditions: for cytotoxicity against normal cells (the mouse graft host): administered intraperitoneally or orally to SCID mice with ARH-77 xenografts
Protocol: For the experiment shown in FIG. 6, mice received 1.9×10^6 ARH-77 cells by intraperitoneal transplantation. […] Mice treated with dexamethasone (“Dexa”) received an intraperitoneal injection of 2 mg/kg dexamethasone. Vehicle treated control animals received intraperitoneal vehicle injection. Each injection was performed on day 1, day 2 and day 3 after transplantation of ARH-77 cells.
For the experiment shown in FIG. 7, mice received 0.8×10^6 ARH-77 cells by intraperitoneal transplantation.
For the experiment shown in FIG. 8, mice received 4.1×10^6 ARH-77 cells by intraperitoneal transplantation.

Compound | IC50 (Jurkat cells; Table 2) [µM] | percentage of cells in G1 phase (Jurkat cells; Jurkat cells pre-arrested at G2 by X-ray 10 Gy, 0.019 μM to 0.625 μM, 24 hours) | first decrease in survival, days after transplantation (ARH-77 cells; 0.8×10^6 ARH-77 cells i.p., single oral administration 750 mg/kg on Day 1) [days] | survival at 85 days (ARH-77 cells; 0.8×10^6 ARH-77 cells i.p., single oral administration 750 mg/kg on Day 1, control about 20%) [%] | cytotoxicity against normal cells (the mouse graft host) (ARH-77 cells) | IC50 (Jurkat cells; Table 3) [µM]
CC1=C(CCC(=O)OC(C)(C)C)C(=O)N(Nc2ccc(C(F)(F)F)c(Cl)n2)C1=O [Compound S01860, tert-butyl 3-(1-{[6-chloro-5-(trifluoromethyl)(2-pyridyl)]amino}-4-methyl-2,5-dioxoazolin-3-yl) propanoate] | 0.03 | dose-dependent increase in the percentage of cells in G1 phase; also recorded: significant increase in the number of G1 cells | 70 | ~90 | no detectable cytotoxicity against normal cells | –
CC1=C(COCCC(C)C)C(=O)N(Nc2ccc(C(F)(F)F)c(Cl)n2)C1=O [Compound S03405, 1-{[6-chloro-5-(trifluoromethyl)(2-pyridyl)]amino}-4-methyl-3-[(3-methylbutoxy)methyl]azoline-2,5-dione] | – | – | – | – | no detectable cytotoxicity against normal cells | < 0.019
CCCCOCC1=C(C)C(=O)N(Nc2ccc(C(F)(F)F)c(Cl)n2)C1=O [Compound S03518, 3-(butoxymethyl)-1-{[6-chloro-5-(trifluoromethyl)(2-pyridyl)]amino}-4-methylazoline-2,5-dione] | – | – | – | – | no detectable cytotoxicity against normal cells | 0.02
